Measurements reported in patent US20140024700A1, “BLOOD-BORNE MIRNAS AS SURROGATE MARKERS OF DRUG EFFICACY FOR CARDIAC CONDITIONS” (miRagen Therapeutics, Inc., priority 2010, published 2014).

How the values were obtained:
Dahl salt-sensitive rats = assay: Dahl salt-sensitive rat model, 6% NaCl diet: body weight and survival (Example 3); assay type: in vivo
[1] = test system: miR-208a, miR-499, miR-208b, Myh6, Myh7b, Myh7, Dynlt1, Vcpip, Tegt; assay: Cardiac tissue real-time PCR, 6% NaCl diet (Example 3); assay type: in vivo, rat; settings: M-10101 25 mg/kg sc, Captopril po daily
Description: (§1) One week following the initiation of the 6.0% NaCl diet, rats were dosed subcutaneously (sc) with saline or oligonucleotides (M−10101, 5′-CTTTTTGCTCGTCTTA-3′ (SEQ ID NO: 12) or M-10591, 5′-TCCTAGAAAGAGTAGA-3′ (SEQ ID NO:13)) at 25 mg/kg every 2 weeks. Captopril or water were dosed daily by oral gavage. Echocardiography was performed every 2 weeks starting one week post […] dosing. The Captopril dose for rat was selected to match the standard human dose in man.
For in vivo real-time PCR analysis, RNA was extracted from cardiac tissue using Trizol (Invitrogen) after which two μg RNA from each tissue sample was used to generate cDNA using Super Script II reverse transcriptase per manufacturer's specifications (Invitrogen). To detect the level of miR-208 RT-PCR was performed using the Taqman MicroRNA assay (Applied Biosystems, ABI) according the manufacturer's recommendations, using 10-100 ng of total RNA. The expression of a subset of genes was analyzed by quantitative real time PCR using Taqman probes purchased from AB.

plasma miRNAs = assay: Real-time PCR of plasma miRNAs, 6% NaCl diet (Example 3); assay type: in vivo, rat
Description: as §1
Quantitative real-time PCR analysis from plasma. RNA from plasma samples was isolated using Trizol LS Reagent (Invitrogen), using the manufacturer's protocol. Prior to RNA isolation, […] of two different synthetic C. elegans miRNA sequences were added to serve as internal controls for normalization of target miRNAs. The C. elegans sequences used were cel-miR-2 ([…], SEQ ID NO:5), and cel-lin-4 ([…]; SEQ ID NO:6) (Dharmacon). The final RNA pellet was re-suspended in a final volume equal to the initial plasma volume and 5 μl was used for subsequent RT-PCR reactions, as described above.

miR-208a, Myh6, Myh7 = assay: Cardiac tissue markers by Taqman RT-PCR, 4% NaCl diet (Example 2); assay type: in vivo, rat; settings: 25 mg/kg sc every 2 weeks; for Myh6 expression in cardiac tissue: 25 mg/kg
Description: The flowing experimental groups were tested:
Following catheter implant surgery, high-salt diet was initiated. […] Animals were sacrificed 8 weeks after the initial injection.
Tissue RNA was isolated using standard Trizol RNA isolation.

| Molecule | Survival (Kaplan-Meier) (Dahl salt-sensitive rats; 1.5 mg/kg Captopril po daily) | Body weight (Dahl salt-sensitive rats; 15 mg/kg Captopril po daily) | Myh7b levels in the heart [1] | αMHC (Myh6) in the heart (reduced by HS diet) [1] | βMHC (Myh7) expression (increase induced by HS diet) [1] | Plasma miR-21 (plasma miRNAs) | Plasma miR-150 (plasma miRNAs) | Plasma miR-223 (plasma miRNAs) | Plasma miR-423-5p, miR-106b, miR-16, miR-92a, miR-378, miR-210, miR-378*, miR-20b and miR-93 (plasma miRNAs) | Body weight (Dahl salt-sensitive rats; oligonucleotide 25 mg/kg sc every 2 weeks) | Myh7 expression in cardiac tissue (miR-208a, Myh6, Myh7) | Myh6 expression in cardiac tissue (miR-208a, Myh6, Myh7) | Myh6 expression in cardiac tissue (miR-208a, Myh6, Myh7; listed as control oligonucleotide) |
| --- | --- | --- | --- | --- | --- | --- | --- | --- | --- | --- | --- | --- | --- |
| C[C@H](CS)C(=O)N1CCC[C@H]1C(=O)O [Captopril, reference compound] | pronounced decrease in survival | slightly reduced the high-salt (HS) diet-induced decrease in body weight | no apparent effect | normalized | reduced the increase | reduced specifically | reduced specifically | significantly reduced | decreased | – | – | – | – |
| M-10591: control oligonucleotide targeting miR-67 from C. elegans; 5′-TCCTAGAAAGAGTAGA-3′ (SEQ ID NO:13) (LNA-modified control oligonucleotide, pattern not given here) [reference compound] | – | – | – | – | – | – | – | – | – | no apparent effect on weight gain | significantly increased | significant decrease | no effect |
